The text below walks through data of patent US6417399B1, “Amelioration of neurological disorders by the administration of (2R),(3S), and/or (2S),3(S) stereoisomers of valnoctamide” (Yissum Research Development Company of the Hebrew …, priority 1997, dated 2002).

Data set [1] can be described thus: Pharmacokinetics of VCD stereoisomers in plasma after single oral dose of racemic valnoctamide to healthy subjects. Type of data set: in vivo, human. The protocol:
Healthy Subjects Seven healthy male volunteers, aged 20-31 years, weighing 61 to 85 kg, received 2×200 mg valnoctamide tablets (Nirvanil@) at 08:00 hours after an overnight fast. Venous blood samples were taken through an indwelling catheter 0, 0.5, 1, 2, 3, 4, 5, 6, 8, 10, 12 and 24 hours after dosing. Food was witheld for 4 hours after dosing.
(§1) Plasma Handling and Analytical Assays Plasma samples were separated immediately by centrifugation at 2,000 g for 10 minutes and stored at −20° C. until assaying (VCD is stable at −20° C.). The VCD plasma samples were analyzed by a gas chromatograph (HP 5890 series II)-mass spectrometer (HP 5989A)-GC-MS data system equipped with chiral capillary column. The mass spectrometer was operated in E1 mode at 70eV, the source temperature of the MS was maintained at 200° C. and the quadruple at 100° C. Mass units and their relative abundance were calibrated with perfluorotributylamine (PFTBA). Spectra were collected in the range of […], and the chiral analysis started 18 minutes after injection. Gas chromatograph (GC) oven temperature programming conditions were as follows: 50° C. for 1 minute, then increasing at a rate of 8° C./minute until 100° C., holding for a minute then 4° C./minute until reaching a final temperature of 250° C. The injector temperature is 240° C. and the GC-MS transfer line temperature is 250° C. Inlet pressure is 5 psi with a linear flow rate 20 cm/second. Helium was used as the carrier gas. Chromatographic resolution of the VCD stereoisomers was accomplished by a direct separation on a chiral stationary phase (CSP) column. The CSP consisted of a Chirasil-γ-Dex (octakis (3-O-butanoyl-2,6-di-o-pentyl)-γ-cyclodextrin chemically linked via a 6-mono-octamethylene spacer to a dimethylpolysiloxane. The 0.25 μm Chirasil-γ-Dex was coated on a 25 m×250 μm (id) fused silica capillary column. This CSP of a cyclodextin derivative allows complete baseline resolution of the four stereoisomers (α=1.04, Rs=2.0-2.4) in 24 minutes as depicted in FIG. 2. Intra and inter-day variability in the retention times of the four VCD stereoisomers was less than 10%. A calibration curve was established by spiking drug-free plasma samples with known amounts of racemic VCD at a concentration range of 0.2 mg/L to 8 mg/L (or 0.05 mg/L to 2 mg/L of each of the four VCD stereoisomers).
(§2) Pharmacokinetic and Statistical Analysis Pharmacokinetic parameters were calculated by noncompartmental analysis according to statistical moment theory. Peak plasma concentrations (Cmax) and peak times (tmax) were derived directly from the measured values. The linear terminal slopes (λ) of the log-concentration of each VCD stereoisomer versus time curves were calculated by the peeling procedure. Half life (t½) values were calculated as 0.693/λ. Areas under the plasma concentration versus time curve (AUC), after single dosing, were calculated by the trapezoidal rule with extrapolation to infinity by dividing the last measured concentration by the terminal slope. During repeated administration AUC was calculated over the last two dosing intervals by using the trapezoidal rule. Mean residence time (MRT) was calculated after single dosing as AUMC/AUC, in which AUMC is the area under the concentration×time product versus time curve from zero to infinity. Following single dosing, oral clearance (CL/F, in which F is the oral availability) and apparent volume of distribution at steady state (Vss/F) were calculated as Dose/AUC and as MRT×CL/F, respectively. Following repeated dosing, CL/F was calculated from the quotient of the dose (200 mg) and the AUC obtained during one dosing interval (defined as one-half of the AUC calculated over two consecutive dosing intervals). Comparison of the pharmacokinetic parameters of all four VCD stereoisomers was made by ANOVA.

Data set [2] can be described thus: Pharmacokinetics of VCD stereoisomers in plasma after single oral dose of racemic valnoctamide to epileptic patients. Type of data set: in vivo, human. Particulars: for CL/F / Cmax / MRT / tmax / t½: single oral 400 mg racemic VCD; for half lives: epileptic patients. On the procedure: (§3) Patients Six epileptic patients (four men and two women aged 23-35 years, with a body weight of 56-85 kg) were studied. All had been receiving a constant carbamazepine dose (800-1200 mg/day) for at least three months. One patient was also receiving phenytoin (250 mg/day) and a second patient phenobarbital (150 mg/day). Each patient received add-on VCD for eight consecutive days at a dosage of 400 mg on day 1 (single dose day), followed by 200 mg three times daily (tid) for seven days. On the last day, only the morning and the midday doses were administered. Blood samples for plasma VCD levels were collected at 0, 0.25, 0.5, 1, 1.5, 2, 3, 4, 5, 6, 8, 10, 12 and 24 hours after the first and the last morning dose. Additional samples were taken at times 0, 0.5, 1, and 2 hours after the morning dose on the last treatment day.
as §1
as §2, with “Following repeated dosing, CL/F was calculated from the quotient of the dose (200 mg) and the AUC obtained during one dosing interval (defined as one-half of the AUC calculated over two consecutive dosing intervals). Comparison of the pharmacokinetic parameters of all four VCD stereoisomers was made by ANOVA.” left out

The nature of data set [3]: Pharmacokinetics of VCD stereoisomers in plasma after repeated oral dosing of racemic valnoctamide to epileptic patients. It is filed as in vivo, human. The note with it: repeated oral racemic VCD 200 mg tid, last day. On the procedure:
as §3, §1
as §2, with “Following repeated dosing, CL/F was calculated from the quotient of the dose (200 mg) and the AUC obtained during one dosing interval (defined as one-half of the AUC calculated over two consecutive dosing intervals). Comparison of the pharmacokinetic parameters of all four VCD stereoisomers was made by ANOVA.” left out

For data set [4] the following is noted: animal models; cited from earlier work.
The conditions of data set [5]: in animals; cited from earlier work.
The target of a further data set is T1, epoxide hydrolase (Homo sapiens, UniProt P07099).
T1 construct: decreased clearance of CBZ-E in patients; host or cells: patients in vivo (endogenous enzyme)
T1 sequence (P07099 1-455): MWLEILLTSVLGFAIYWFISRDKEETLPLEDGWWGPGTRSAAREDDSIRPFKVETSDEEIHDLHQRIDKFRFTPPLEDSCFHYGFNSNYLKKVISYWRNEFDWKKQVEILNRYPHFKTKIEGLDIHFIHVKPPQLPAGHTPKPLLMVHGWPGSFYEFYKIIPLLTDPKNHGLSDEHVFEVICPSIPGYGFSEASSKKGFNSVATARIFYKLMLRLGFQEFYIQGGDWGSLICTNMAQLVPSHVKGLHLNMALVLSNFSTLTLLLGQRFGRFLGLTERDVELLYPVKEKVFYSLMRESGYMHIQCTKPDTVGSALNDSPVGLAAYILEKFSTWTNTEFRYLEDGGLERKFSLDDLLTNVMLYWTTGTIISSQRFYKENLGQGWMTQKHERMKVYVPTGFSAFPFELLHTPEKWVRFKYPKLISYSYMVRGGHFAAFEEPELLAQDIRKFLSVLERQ
Particulars: racemic VCD; cited from earlier work.

For data set [6] the following is noted: in vivo; cited from earlier work.
Setting [7] is: Mean ± SD of seven healthy subjects, single oral 400 mg racemic VCD.
Where [8] appears, read: individual healthy subjects, single oral 400 mg racemic VCD.
Setting [9] is: individual healthy subjects, single oral 400 mg racemic VCD (Nirvanil), stereoisomer in plasma.
Where [10] appears, read: Mean ± SD of six epileptic patients.
Where [11] appears, read: individual epileptic patients on carbamazepine.
Setting [12] is: individual epileptic patients, last dosing interval.

Structures are written as SMILES. Values joined by “and” are separate entries in the source; they are usually repeats but may differ in a detail not shown here. Identical values can stand only once.

On to `CCC(C)C(CC)C(N)=O` (single isomer, unassigned; stereoisomer c) [Stereoisomer C], for which the CL/F (as a rule, the apparent clearance, not corrected for the fraction that reaches the circulation) in data set [1] (setting [7]) is 4.3 ± 0.4 L/h; in data set [1] (setting [8]), 4.0 L/h and 5.1 L/h and 4.3 L/h and 4.1 L/h (2×) and 4.6 L/h and 3.9 L/h; in data set [2] (setting [10]) it was 39 ± 8 L/h; in data set [2] (setting [11]), 50 L/h and 31 L/h and 44 L/h and 38 L/h and 28 L/h and 41 L/h; in data set [3] (setting [10]) it was 27 ± 5 L/h; in data set [3] (individual epileptic patients), 26 L/h and 23 L/h (2×) and 24 L/h and 36 L/h and 28 L/h. For the same molecule, the Cmax – broadly, the maximum level reached in the sampled fluid or tissue – in data set [1] (setting [7]) is 1.6 ± 0.2 mg/L; in data set [1] (setting [8]), 1.8 mg/L (2×) and 1.4 mg/L and 1.7 mg/L (2×) and 1.6 mg/L and 1.5 mg/L; in data set [2] (setting [10]), 0.7 ± 0.12 mg/L; in data set [2] (setting [11]), 0.55 mg/L and 0.82 mg/L and 0.56 mg/L and 0.76 mg/L and 0.8 mg/L and 0.7 mg/L; in data set [3] (setting [10]), 0.8 ± 0.2 mg/L; in data set [3] (individual epileptic patients), 0.81 mg/L and 0.9 mg/L and 0.62 mg/L and 0.7 mg/L and 0.6 mg/L and 1.0 mg/L. The MRT (commonly a mean duration of stay, worked out from the concentration-time curve) was 15 ± 3 h in data set [1] (setting [7]); 12 h (2×) and 18 h (2×) and 14 h and 16 h and 13 h in data set [1] (setting [8]); 4.8 ± 0.4 h in data set [2] (setting [10]); 4.4 h and 4.8 h (2×) and 4.2 h and 5.4 h and 5.0 h in data set [2] (setting [11]). The tmax was 0.7 ± 0.3 h in data set [1] (setting [7]); 1 h (3×) and 0.5 h (4×) in data set [1] (setting [8]); 0.83 ± 0.5 h in data set [2] (setting [10]); 1.5 h (2×) and 0.5 h (4×) in data set [2] (setting [11]); 1.4 ± 0.3 h in data set [3] (setting [10]); 2.0 h and 1.5 h (3×) and 1.0 h and 1.25 h in data set [3] (individual epileptic patients). Besides, the t½ (commonly the time needed for the level to fall by half in the phase considered) is 10.3 ± 1.9 h in data set [1] (setting [7]); “approximately 10 h” in data set [1] (Mean ± SD of seven healthy subjects, single oral 400 mg racemic VCD, listed as C); 8.4 h and 13 h and 8.0 h and 10 h and 11.1 h and 9.2 h and 12.4 h in data set [1] (setting [9]); 3.3 ± 0.5 h in data set [2] (setting [10]); 2.8 h and 3.4 h and 2.6 h and 3.7 h (2×) and 3.5 h in data set [2] (setting [11]); 2.9 ± 0.9 h in data set [3] (setting [10]). In data set [3] (setting [12]), the t½ is 2.2 h and 3.0 h and 4.1 h (2×) and 2.3 h and 5.0 h. Besides, in data set [2], the half lives result is on record as “about 3 h”.
In the case of `CCCC(CCC)C(N)=O` [VPD, Valpromide], the “anticonvulsant potency relative to VPA” value in data set [4] is on record as “three times more potent”. For the same molecule, in data set [5], the teratogenicity result was “has not been found to be teratogenic”.
Turning to `CCC(C)C(CC)C(N)=O` (racemic) [VCD, 2-ethyl-3-methyl pentanamide], the “inhibition of the enzyme epoxide hydrolase” value on epoxide hydrolase is recorded as “inhibitor of the enzyme epoxide hydrolase”. Besides, the “anticonvulsant potency relative to VPA” value in data set [4] is “three times more potent”. Besides, the “half-life relative to that of VPD” value in data set [6] is “ten times higher”.
For `CCC(C)C(CC)C(N)=O` (single isomer, unassigned; stereoisomer b) [Stereoisomer B], the CL/F in data set [1] (setting [7]) is 8.7 ± 0.9 L/h; in data set [1] (setting [8]), 7.9 L/h (2×) and 9.2 L/h and 8.4 L/h and 10.2 L/h and 8.1 L/h and 9.3 L/h; in data set [2] (setting [10]) it was 80 ± 20 L/h; in data set [2] (setting [11]) it was 108 L/h and 60 L/h and 94 L/h and 84 L/h and 56 L/h and 79 L/h; in data set [3] (setting [10]) it was 58 ± 14 L/h; in data set [3] (individual epileptic patients), 79 L/h and 50 L/h (2×) and 52 L/h and 71 L/h and 46 L/h. Moreover, the Cmax in data set [1] (setting [7]) is 1.3 ± 0.2 mg/L; in data set [1] (setting [8]), 1.5 mg/L (2×) and 1.1 mg/L (2×) and 1.4 mg/L (3×); in data set [2] (setting [10]) it was 0.41 ± 0.12 mg/L; in data set [2] (setting [11]), 0.31 mg/L and 0.56 mg/L and 0.3 mg/L and 0.48 mg/L and 0.51 mg/L and 0.32 mg/L; in data set [3] (setting [10]) it was 0.4 ± 0.1 mg/L; in data set [3] (individual epileptic patients) it was 0.4 mg/L (2×) and 0.5 mg/L (2×) and 0.3 mg/L (2×). Moreover, the MRT in data set [1] (setting [7]) is 8 ± 1 h; in data set [1] (setting [8]) it was 7.0 h and 10 h (2×) and 7 h and 9 h and 8 h (2×); in data set [2] (setting [10]) it was 4.0 ± 1.6 h; in data set [2] (setting [11]), 3.6 h and 5.2 h and 3.3 h and 1.3 h and 5.1 h and 5.6 h. The tmax is 0.7 ± 0.3 h in data set [1] (setting [7]); 1 h (3×) and 0.5 h (4×) in data set [1] (setting [8]); 0.75 ± 0.41 h in data set [2] (setting [10]); 1 h and 0.5 h (4×) and 1.5 h in data set [2] (setting [11]); 1.4 ± 0.3 h in data set [3] (setting [10]); 2.0 h and 1.5 h (3×) and 1.0 h and 1.25 h in data set [3] (individual epileptic patients). The t½ in data set [1] (setting [7]) was 5.8 ± 1.1 h; in data set [1] (Mean ± SD of seven healthy subjects, single oral 400 mg racemic VCD, listed as stereoisomer B), roughly 5.8 h; in data set [1] (setting [9]), 4.7 h and 7.3 h and 4.6 h and 6.0 h and 5.8 h and 5.2 h and 7.1 h; in data set [2] (setting [10]), 3.0 ± 1.3 h; in data set [2] (setting [11]), 1.4 h and 4.0 h (2×) and 1.3 h and 3.0 h and 4.1 h; in data set [3] (setting [10]), 2.2 ± 0.5 h. The t½ in data set [3] (setting [12]) was 2.0 h and 1.9 h and 2.9 h and 2.1 h and 4.3 h (2×). For the same molecule, the half lives result in data set [2] is “about 3 h”.
